Patent US20250115591A1, “NOVEL SULFONAMIDE CARBOXAMIDE COMPOUNDS” (INFLAZOME LIMITED, priority 2017, published 2025)
Structures can show the parent of a compound that is named as a salt. Each block holds one molecule with its values, some of them ahead of it.

Key:
NLRP3 [1] = target: T1, NLRP3 (Homo sapiens (Human), UniProt Q96P20); experiment: THP-1 cells pyroptosis assay (LPS + nigericin, resazurin read-out); assay type: cell-based; details: 1 μg/ml LPS, 5 μM nigericin
Summary of the method: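 LPS-primed (1 μg/ml) human THP-1 cells in serum-free RPMI were exposed to compound (8-point half-log series, top dose as printed "10M") for 3 h at 37 °C, then to nigericin 5 μM for 1 h. Remaining viability was read by resazurin (100 μM, 1-2 h) fluorescence, and IC50 came from 4-parameter variable-slope regression.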

NLRP3 [2] = target: T1, NLRP3; experiment: Human whole blood IL1β release assay (LPS + nigericin); assay type: cell-based; details: human whole blood, 1 μg/ml LPS, nigericin, IL-1β release; read-out: HWB IC50
Method: For systemic delivery, the ability to inhibit NLRP3 when the compounds are present within the bloodstream is of great importance. For this reason, the NLRP3 inhibitory activity of a number of compounds in human whole blood was investigated in accordance with the following protocol.
Human whole blood in Li-heparin tubes was obtained from healthy donors from a volunteer donor panel. • 1. Plate out 80 μl of whole blood containing 1 μg/ml of LPS in 96-well, clear bottom cell culture plate (Corning #3585) • 2. Add 10 μl compound (8 points half-log dilution with 10 μM top dose) or vehicle (DMSO 0.1% FAC) to the appropriate wells • 3. Incubate for 3 hrs at 37° C., 5% CO2 • 4. Add 10 μl nigericin (Sigma #N7143) ([…]) to all wells • 5. Incubate for 1 hr at 37° C., 5% CO2 • 6. At the end of the incubation period, spin plates at 30×g for 5 mins to pellet cells and remove 20 μl of supernatant and add to 96-well v-bottom plates for IL-1β analysis (note: these plates containing the supernatants can be stored at −80° C. to be analysed at a later date) • 7. IL-1β was measured according to the manufacturer protocol (Perkin Elmer-AlphaLisa IL-Kit A[220F-5000) • 8. IC50 data is fitted to a non-linear regression equation (log inhibitor vs response-variable slope 4-parameters)

T1 sequence (Q96P20 whole entry): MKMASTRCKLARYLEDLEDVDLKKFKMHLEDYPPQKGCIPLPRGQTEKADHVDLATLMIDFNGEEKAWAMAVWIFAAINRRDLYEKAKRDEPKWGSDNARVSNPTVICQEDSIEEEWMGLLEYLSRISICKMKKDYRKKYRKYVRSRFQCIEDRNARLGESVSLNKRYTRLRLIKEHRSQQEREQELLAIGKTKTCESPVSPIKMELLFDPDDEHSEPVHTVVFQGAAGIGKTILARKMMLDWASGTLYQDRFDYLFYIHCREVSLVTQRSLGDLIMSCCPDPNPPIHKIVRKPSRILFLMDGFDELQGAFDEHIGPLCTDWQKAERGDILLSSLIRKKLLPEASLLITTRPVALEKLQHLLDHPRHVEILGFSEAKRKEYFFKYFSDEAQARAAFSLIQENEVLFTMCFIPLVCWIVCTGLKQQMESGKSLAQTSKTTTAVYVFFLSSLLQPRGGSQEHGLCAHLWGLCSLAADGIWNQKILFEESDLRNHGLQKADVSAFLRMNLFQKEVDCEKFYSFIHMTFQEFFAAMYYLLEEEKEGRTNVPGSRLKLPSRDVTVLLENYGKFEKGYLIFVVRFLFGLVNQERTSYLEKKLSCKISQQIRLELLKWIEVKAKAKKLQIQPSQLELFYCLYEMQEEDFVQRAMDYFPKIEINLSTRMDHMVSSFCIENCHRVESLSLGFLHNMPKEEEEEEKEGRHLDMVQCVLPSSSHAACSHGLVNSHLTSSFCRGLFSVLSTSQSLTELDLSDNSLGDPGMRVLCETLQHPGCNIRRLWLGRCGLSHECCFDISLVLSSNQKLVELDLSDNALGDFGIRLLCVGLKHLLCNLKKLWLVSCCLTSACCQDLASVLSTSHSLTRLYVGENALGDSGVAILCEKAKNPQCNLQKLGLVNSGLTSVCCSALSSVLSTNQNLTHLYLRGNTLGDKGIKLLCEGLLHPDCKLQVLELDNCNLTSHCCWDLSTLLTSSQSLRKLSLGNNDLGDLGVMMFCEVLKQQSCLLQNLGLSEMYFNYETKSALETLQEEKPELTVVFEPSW

SMILES: O=C(Nc1c2c(cc3c1CCC3)CCC2)NS(=O)(=O)C1CN(Cc2cccnc2)C1 [Example 90, N-((1,2,3,5,6,7-Hexahydro-s-indacen-4-yl)carbamoyl)-1-(pyridin-3-ylmethyl)azetidine-3-sulfonamide, potassium salt]
IC50 (NLRP3 [1]): < 1 µM
IC50 (NLRP3 [2]): < 1 µM

SMILES: O=C(Nc1c2c(cc3c1CCC3)CCC2)NS(=O)(=O)C1CN(CC(F)(F)F)C1 [Example 96, N-((1,2,3,5,6,7-Hexahydro-s-indacen-4-yl)carbamoyl)-1-(2,2,2-trifluoroethyl)azetidine-3-sulfonamide, potassium salt]
IC50 (NLRP3 [1]): < 1 µM
IC50 (NLRP3 [2]): 1 to 10 µM

SMILES: CC(C)CN1CC(S(=O)(=O)NC(=O)Nc2c3c(cc4c2CCC4)CCC3)C1 [Example 97, N-((1,2,3,5,6,7-Hexahydro-s-indacen-4-yl)carbamoyl)-1-isobutylazetidine-3-sulfonamide, potassium salt]
IC50 (NLRP3 [1]): < 1 µM
IC50 (NLRP3 [2]): < 1 µM

IC50 (NLRP3 [1]): < 1 µM
IC50 (NLRP3 [2]): < 1 µM
SMILES: O=C(Nc1c2c(cc3c1CCC3)CCC2)NS(=O)(=O)C1CN(CC2COC2)C1 [Example 101, N-((1,2,3,5,6,7-Hexahydro-s-indacen-4-yl)carbamoyl)-1-(oxetan-3-ylmethyl)azetidine-3-sulfonamide, potassium salt]

SMILES: O=C(Nc1c2c(cc3c1CCC3)CCC2)NS(=O)(=O)C1CN(Cc2ccncc2)C1 [Example 103, N-((1,2,3,5,6,7-Hexahydro-s-indacen-4-yl)carbamoyl)-1-(pyridin-4-ylmethyl)azetidine-3-sulfonamide, potassium salt]
IC50 (NLRP3 [1]): < 1 µM
IC50 (NLRP3 [2]): 1 to 10 µM

SMILES: O=C(Nc1c2c(cc3c1CCC3)CCC2)NS(=O)(=O)C1CN(Cc2cccnc2Br)C1 [Example 105, 1-((2-Bromopyridin-3-yl)methyl)-N-((1,2,3,5,6,7-hexahydro-s-indacen-4-yl)carbamoyl)azetidine-3-sulfonamide, potassium salt]
IC50 (NLRP3 [1]): < 1 µM
IC50 (NLRP3 [2]): > 10 µM

SMILES: O=C(Nc1c2c(cc3c1CCC3)CCC2)NS(=O)(=O)C1CN(CCF)C1 [Example 108, 1-(2-Fluoroethyl)-N-((1,2,3,5,6,7-hexahydro-s-indacen-4-yl)carbamoyl)azetidine-3-sulfonamide, potassium salt]
IC50 (NLRP3 [1]): < 1 µM
IC50 (NLRP3 [2]): < 1 µM

SMILES: O=C(Nc1c2c(cc3c1CCC3)CCC2)NS(=O)(=O)C1CN(C2CCOC2)C1 (stereo not shown) [Example 121, N-((1,2,3,5,6,7-Hexahydro-s-indacen-4-yl)carbamoyl)-1-(tetrahydrofuran-3-yl)azetidine-3-sulfonamide, potassium salt]
IC50 (NLRP3 [1]): < 1 µM
IC50 (NLRP3 [2]): < 1 µM

SMILES: CCC(C)N1CC(S(=O)(=O)NC(=O)Nc2c3c(cc4c2CCC4)CCC3)C1 (stereo not shown) [Example 122, 1-(sec-Butyl)-N-((1,2,3,5,6,7-hexahydro-s-indacen-4-yl)carbamoyl)azetidine-3-sulfonamide, potassium salt]
IC50 (NLRP3 [1]): < 1 µM
IC50 (NLRP3 [2]): < 1 µM

SMILES: CC1(C)CCC1N1CC(S(=O)(=O)NC(=O)Nc2c3c(cc4c2CCC4)CCC3)C1 (stereo not shown) [Example 124, 1-(2,2-Dimethylcyclobutyl)-N-((1,2,3,5,6,7-hexahydro-s-indacen-4-yl)carbamoyl)azetidine-3-sulfonamide, potassium salt]
IC50 (NLRP3 [1]): < 1 µM
IC50 (NLRP3 [2]): 1 to 10 µM

SMILES: O=C(Nc1c2c(cc3c1CCC3)CCC2)NS(=O)(=O)C1CN(CC2CCC2)C1 [Example 126, 1-(Cyclobutylmethyl)-N-((1,2,3,5,6,7-hexahydro-s-indacen-4-yl)carbamoyl)azetidine-3-sulfonamide, potassium salt]
IC50 (NLRP3 [1]): 1 to 10 µM
IC50 (NLRP3 [2]): 1 to 10 µM

SMILES: CC(CO)N1CC(S(=O)(=O)NC(=O)Nc2c3c(cc4c2CCC4)CCC3)C1 (stereo not shown) [Example 130, N-((1,2,3,5,6,7-Hexahydro-s-indacen-4-yl)carbamoyl)-1-(1-hydroxypropan-2-yl)azetidine-3-sulfonamide, potassium salt]
IC50 (NLRP3 [1]): < 1 µM
IC50 (NLRP3 [2]): < 1 µM

SMILES: CC(C(F)F)N1CC(S(=O)(=O)NC(=O)Nc2c3c(cc4c2CCC4)CCC3)C1 (stereo not shown) [Example 131, 1-(1,1-Difluoropropan-2-yl)-N-((1,2,3,5,6,7-hexahydro-s-indacen-4-yl)carbamoyl)azetidine-3-sulfonamide, potassium salt]
IC50 (NLRP3 [1]): < 1 µM
IC50 (NLRP3 [2]): 1 to 10 µM

SMILES: C#CCN1CC(S(=O)(=O)NC(=O)Nc2c3c(cc4c2CCC4)CCC3)C1 [Example 133, N-((1,2,3,5,6,7-Hexahydro-s-indacen-4-yl)carbamoyl)-1-(prop-2-yn-1-yl)azetidine-3-sulfonamide, potassium salt]
IC50 (NLRP3 [1]): < 1 µM
IC50 (NLRP3 [2]): < 1 µM

SMILES: O=C(Nc1c2c(cc3c1CCC3)CCC2)NS(=O)(=O)C1CN(CCCO)C1 [Example 134, N-((1,2,3,5,6,7-Hexahydro-s-indacen-4-yl)carbamoyl)-1-(3-hydroxypropyl)azetidine-3-sulfonamide, potassium salt]
IC50 (NLRP3 [1]): < 1 µM
IC50 (NLRP3 [2]): 1 to 10 µM

SMILES: CC(C)(C)CN1CC(S(=O)(=O)NC(=O)Nc2c3c(cc4c2CCC4)CCC3)C1 [Example 135, N-((1,2,3,5,6,7-Hexahydro-s-indacen-4-yl)carbamoyl)-1-neopentylazetidine-3-sulfonamide, potassium salt]
IC50 (NLRP3 [1]): < 1 µM
IC50 (NLRP3 [2]): 1 to 10 µM

SMILES: CC(O)CN1CC(S(=O)(=O)NC(=O)Nc2c3c(cc4c2CCC4)CCC3)C1 (stereo not shown) [Example 137, N-((1,2,3,5,6,7-Hexahydro-s-indacen-4-yl)carbamoyl)-1-(2-hydroxypropyl)azetidine-3-sulfonamide, potassium salt]
IC50 (NLRP3 [1]): < 1 µM
IC50 (NLRP3 [2]): 1 to 10 µM

SMILES: O=C(Nc1c2c(cc3c1CCC3)CCC2)NS(=O)(=O)C1CN(CCCCO)C1 [Example 138, N-((1,2,3,5,6,7-Hexahydro-s-indacen-4-yl)carbamoyl)-1-(4-hydroxybutyl)azetidine-3-sulfonamide, potassium salt]
IC50 (NLRP3 [1]): < 1 µM
IC50 (NLRP3 [2]): < 1 µM

SMILES: Cn1ccc(CN2CC(S(=O)(=O)NC(=O)Nc3c4c(cc5c3CCC5)CCC4)C2)cc1=O [Example 141, N-((1,2,3,5,6,7-Hexahydro-s-indacen-4-yl)carbamoyl)-1-((1-methyl-2-oxo-1,2-dihydropyridin-4-yl)methyl)azetidine-3-sulfonamide, potassium salt]
IC50 (NLRP3 [1]): < 1 µM
IC50 (NLRP3 [2]): 1 to 10 µM

SMILES: O=C(Nc1c2c(cc3c1CCC3)CCC2)NS(=O)(=O)C1CN(CC2CCOC2)C1 (stereo not shown) [Example 144, N-((1,2,3,5,6,7-Hexahydro-s-indacen-4-yl)carbamoyl)-1-((tetrahydrofuran-3-yl)methyl)azetidine-3-sulfonamide, potassium salt]
IC50 (NLRP3 [1]): < 1 µM
IC50 (NLRP3 [2]): 1 to 10 µM

SMILES: O=C(Nc1c2c(cc3c1CCC3)CCC2)NS(=O)(=O)C1CN(CC2CCCO2)C1 (stereo not shown) [Example 145, N-((1,2,3,5,6,7-Hexahydro-s-indacen-4-yl)carbamoyl)-1-((tetrahydrofuran-2-yl)methyl)azetidine-3-sulfonamide, potassium salt]
IC50 (NLRP3 [1]): < 1 µM
IC50 (NLRP3 [2]): 1 to 10 µM

SMILES: O=C(Nc1c2c(cc3c1CCC3)CCC2)NS(=O)(=O)C1CN(CCO)C1 [Example 152, 1-(2-Hydroxyethyl)-N-((1,2,3,5,6,7-hexahydro-s-indacen-4-yl)carbamoyl)azetidine-3-sulfonamide, potassium salt]
IC50 (NLRP3 [1]): < 1 µM
IC50 (NLRP3 [2]): < 1 µM

IC50 (NLRP3 [1]): < 1 µM
IC50 (NLRP3 [2]): < 1 µM
SMILES: COc1cc(-c2cc(F)cc(C(C)C)c2NC(=O)NS(=O)(=O)C2CN(C(C)C)C2)ccn1 [Example 158, N-((4-Fluoro-2-isopropyl-6-(2-methoxypyridin-4-yl)phenyl)carbamoyl)-1-isopropylazetidine-3-sulfonamide]
